How the values were obtained:
[1] = tested on: colorectal cancer PDX (11124, 14528); test: Colorectal cancer patient-derived xenografts (PDX); design: species or system SCID mice; settings: mouse, in vivo
Excerpt: Individual PDX were subcutaneously inoculated into SCID mice. […] Individual PDX tumor curves derived from individual mice are shown. […] Two examples of colorectal cancer PDX (11124, 14528) are shown.

[2] = tested on: human proteins (MARK3, DDI1, TPD52L2, CACNB1, PGPCR1, USP2, MC2R, FGF18, TP53I3, CNBP, WDR22, PVGCSE-M1, UBE2T, ULP7, RBMS2, BMX, CCNB1IP1); test: Protein microarray (ProtoArray) with FL118 as a probe; assay type: binding; settings: over 9,000 human proteins
Excerpt: These targets include, but not limited to, MAP/microtubule affinity-regulating kinase 3 (MARK3), DNA-damage inducible 1 (DDI1), tumor protein D52-like 2 (TPD52L2), calcium channel, voltage-dependent, beta 1 subunit (CACNB1), Probable G-protein coupled receptor 1 (PGPCR1), ubiquitin specific peptidase 2 (USP2), melanocortin 2 receptor (MC2R), Fibroblast growth factor 18 (FGF18), tumor protein p53 inducible protein 3 (TP53I3), CCHC-type zinc finger, nucleic acid binding protein (CNBP), WD repeat domain 22 (WDR22), Potassium voltage-gated channel subfamily E member 1 (PVGCSE-M1), ubiquitin-conjugating enzyme E2T (putative) (UBE2T), Ubiquitin-like protein 7 (ULP7), RNA binding motif, single stranded interacting protein 2 (RBMS2), Cytoplasmic tyrosine-protein kinase (BMX), and cyclin B1 interacting protein 1 (CCNB1IP1).

cancer cells = test: Cell growth and viability, MTT; assay type: cell-based, human; settings: 72 hours
Method: Actin is an internal control for equal protein loading. […] Subconfluent cancer cells as shown are treated with a series of concentrations of crolibulin as shown (0-100 μM) for 72 hours. Cell growth and viability are determined via MTT assay. Each curve is the mean±SD from 4 independent assays.
Crolibulin is an anticancer drug that targets endothelial cells of the cancer vasculature system. Therefore, crolibulin is considered as a vascular disrupt agent (VDA).

survivin promoter = test: Survivin promoter-luciferase activity assay; assay type: cell-based, human
Method: Cancer cells are seeded in 48-well plates at about 50% confluent overnight in complete cell culture medium. Cells are either stably transfected with the pLuc-4080 survivin promoter-luciferase construct or transiently transfected with relevant luciferase reporter vectors. For transient transfection, 245 ng of targeting luciferase reporter construct plus 5 ng of internal control vector, pRK-tk in 30 μl serum-free DMEM, is mixed in a 1.5 ml tube containing 30 μl serum-free DMEM containing 0.4 μl Lipofectamine™ 2000. After incubation at room temperature for 20-25 minutes, the DNA/Lipofectamine complex is added to each well of 48-well plates, which already contain 300 μl corresponding complete growth medium in each well. […] Cells are further incubated for an additional 24-48 hours in a normoxia and/or hypoxia condition, followed by processing luciferase assays. For luciferase assay, a Dual-Luciferase Reporter Assay System (Promega) is used. Cells in 48-well plates are washed with PBS and lysed with 80 μl 1× passive lysis buffer on a shaker for up to 1 hour at 4° C. Twenty μl cell lysate per well is used to measure the Firefly and Renilla luciferase activity in triplicates in a Luminometer by subsequently adding 20 μl luciferase assay reagent and 20 μl Stop-Glo reagent. […]

p53 = test: Western blot for p53 expression in colon cancer cells with wild type p53; assay type: cell-based, human
Method: Actin is an internal control for total protein loading.
(§1) After the lysates are cleared by centrifugation at 15,000 g for 20 minutes at 4° C., the total protein is determined using Bio-Rad protein assay solution. Up to 50 μg of total protein is denatured in 2×SDS sample loading buffer for 5 minutes at 95° C., separated on 10-15% SDS-PAGE gels, and electrotransferred to the Pure Nitrocellulose Membrane (Bio-Rad, Hercules, Calif.) using semi-dry electrophoretic transfer. After the nonspecific binding sites on the membranes are blocked with 5% skim milk in TBS-T (20 mM Tris-HCl pH 7.5, 0.137 M NaCl, and 0.01% Tween 20) for 3 hours at room temperature with constant shaking, the membranes are incubated in TBS-T containing the relevant primary antibody (1: 500-1000) and 5% BSA overnight at 4° C. After washing with TB S-T three times, the membrane is incubated in 5% skim milk in TBS-T buffer containing the appropriate secondary anti-IgG antibody (1:5000) at room temperature for 1 h with constant shaking. The protein of interest is detected using Western Lightning®-ECL (Perkin Elmer, Waltham, Mass.) and visualized by exposure for various times (5-60 seconds). […]

PARP cleavage = settings: p53 null versus p53 wild type HCT116
Method: Actin is used as internal controls for total protein loading.
as §1

[3] = tested on: human umbilical vein endothelial cells (HUVECS); test: Cell growth and viability, MTT; assay type: cell-based; settings: 72 hours
[4] = tested on: ABCC4 or ABCG2 in HCT-8 colon cancer cells; test: MTT assay of HCT-8 cells transfected with ABCC4 or ABCG2; assay type: cell-based, human; settings: 72 hours
Method: HCT-8 colon cancer cells are transfected with empty vector (pcDNA3.1), ABCC4 or ABCG2 expression vectors as shown. […] Cell growth/viability is then determined by MTT assay.

Hdm2/HdmX complex = Hdm2/HdmX complex (Homo sapiens, UniProt O15151+Q00987); test: In vitro ubiquitination assay with recombinant proteins
Method: The ubiquitinated p53 (Ub-p53) bands are detected as shown.
The reaction products are resolved by SDS-PAGE followed by immunoblotting with p53 antibody DO-1. For HdmX ubiquitination in vitro, reactions are performed in a 50-μl volume. After completion of the reactions, 10 μl is used for direct immunoblotting to reveal HdmX ubiquitination (a smearing pattern) with FLAG antibody. 40 μl reactions are used for denaturing with 1% SDS followed by dilution with 800 μl of 20 mM Tris, pH7.5, 0.5% NP40, and 120 mM NaCl. The processed reaction products are used for immunoprecipitation with ubiquitin antibody followed by immunoblotting for FLAG-HdmX using anti-FLAG antibodies.

HCT-8 cells = test: Clonogenic assay, HCT-8 cells with shC or shp53; assay type: cell-based, human; settings: 0.3 or 10 nM for 3 days, 14-days culture; shC versus shp53
Method: HCT-8 cells are infected with either control lentivirus (shC) or lentivirus expressing shRNA against human p53 (shp53). […] Cell colonies are stained with crystal violet solution after 14-days culture. […] Colonies larger than 50 cells are counted and normalized against non-treatment control group.
Cancer cells are infected with or without lentivirus particles expressing control shRNA or shRNA for p53 knockdown (pLKO.1) followed by selection with puromycin for one week at 5 μg/ml. […] Then the cells are cultured in an incubator at 37° C., 5% CO2 for another two weeks before fixation and staining with crystal violet solution. Colonies are defined as more than 50 cells and/or images are then digitally taken.

HCT-8 colon cancer cells = test: Cell growth inhibition, 72 hours; assay type: cell-based, human; settings: HCT-8 cells
Method: Cell growth is then measured and the data are plotted as percentage of growth inhibition (no drug treatment was set at 0%). […] C. […] Representative cancer cell images were taken with a digital camera under phase-contrast microscope.

[5] = tested on: pancreatic cancer PDX tumors (12872, 12914, 14244, 17624, 19015); test: Pancreatic cancer patient-derived xenografts (PDX); design: species or system SCID mice; settings: mouse, in vivo
HCT116-G7 cells = test: cells; assay type: cell-based, human
Method: (§2) Cancer cell viability and growth are determined by MTT assay. […] MTT is used as a colorimetric substrate for measuring cell viability and growth. When cell growth is inhibited, there is an alteration of cellular redox activity, and thus rendering cells unable to reduce the MTT dye. Cells are seeded in 96 well plates overnight and then treated with or without a compound/drug in the presence or absence of an protein molecule inhibitor (e.g. ABCG2 inhibitor ko143) for 48-72 hours, MTT is added to a final concentration 0.5 mg/ml. Cells are continuously incubated in a 5% CO2 incubator at 37° C. for 4 h with MTT and then lysed with a cell lysis buffer (20% SDS, 50% N,N-dimethylformamide, pH 4.7), 100 μl per well, for 4 h in the incubator. Subsequently, cell absorbance in each well is measured at 570 nm with an Ultra Microplate Reader (Bio-Tek Instruments). Results are reported as the mean±SD from 3-5 independent assays at each point. […] After 72 hours, media is removed and cells are harvested using 0.5 ml of 0.25% Trypsin-EDTA. Cells are counted and viability is analyzed on a Vi-CELL XR Cell Viability Analyzer (Beckman Coulter).

[6] = tested on: DU145 prostate cancer cells; test: Cell growth inhibition, cell counting after 72 h; assay type: cell-based, human
Excerpt: Each dot is the mean±SD derived from 3 independent assays.
Irinotecan and topotecan are the only two analogs derived from direct modification of camptothecin (CPT) that are approved by the FDA for cancer treatment in clinical practice. […] In this regard, we obtain one DU145 parental prostate cancer cell line and two DU145-derived sub-lines with Top1 mutations (DU145-RC0.1, DU145-RC1).

HCT116-A2 cells = test: cells; assay type: cell-based, human
Method: as §2

HCT116-C8 cells = test: cells; assay type: cell-based, human
Method: as §2

[7] = tested on: IAP and Bcl-2 family genes; test: Affymetrix Human Gene 1.0 ST Array of FL118-treated PC3 cells; settings: DNA microarray
[8] = tested on: FaDu head-&-neck and SW620 CRC tumor xenografts; test: Xenografts with acquired irinotecan or topotecan resistance; assay type: in vivo, SCID mice; settings: FL118 1.5 or 1 mg/kg IP q2d×5
Method: Individual tumor curves derived from individual mice are shown. A. Mice with FaDu head-&-neck tumor xenografts were first treated with irinotecan at its maximum tolerated dose (MTD, 100 mg/kg, IP) weekly for 4-5 times (black arrow). […] B. Mice with FaDu tumor xenografts were first treated with topotecan at its MTD (4 mg/kg, IP) via daily×5 schedules for 4 cycles (each black arrow is one cycle). […] C. Mice with SW620 CRC xenografts were first treated with irinotecan at its MTD (IP, weekly×4, black arrow). […] D. Mice with SW620 xenograft tumors were first treated with topotecan at its MTD.

[9] = Lactone ring stability in formulated solution by mass spectrometry; assay type: physicochemical; settings: formulated solution on shelf for 30 days at room temperature
Method: Mass spectrometry (MS) parameters are used as follows. Bruker Esquire, ion trap; Infusion Flow Rate, 5 μl/min; Ion Polarity, Positive; Ion Source Type, ESI; Dry Temp, 300 deg C.; Nebulizer, 8.00 psi; Dry Gas, 7.00 Umin; HV Capillary, 4000 V; HV End Plate, −500 V; Scan Begin, 100.00 m/z; Average, 30; Max Acc Time, 400 us; and ICC Target, 50000. MS scan is in both negative ion mode and positive ion mode.

[10] = IC50 of topotecan divided by IC50 of the drug

Sequence of Hdm2/HdmX complex (Q00987 whole entry): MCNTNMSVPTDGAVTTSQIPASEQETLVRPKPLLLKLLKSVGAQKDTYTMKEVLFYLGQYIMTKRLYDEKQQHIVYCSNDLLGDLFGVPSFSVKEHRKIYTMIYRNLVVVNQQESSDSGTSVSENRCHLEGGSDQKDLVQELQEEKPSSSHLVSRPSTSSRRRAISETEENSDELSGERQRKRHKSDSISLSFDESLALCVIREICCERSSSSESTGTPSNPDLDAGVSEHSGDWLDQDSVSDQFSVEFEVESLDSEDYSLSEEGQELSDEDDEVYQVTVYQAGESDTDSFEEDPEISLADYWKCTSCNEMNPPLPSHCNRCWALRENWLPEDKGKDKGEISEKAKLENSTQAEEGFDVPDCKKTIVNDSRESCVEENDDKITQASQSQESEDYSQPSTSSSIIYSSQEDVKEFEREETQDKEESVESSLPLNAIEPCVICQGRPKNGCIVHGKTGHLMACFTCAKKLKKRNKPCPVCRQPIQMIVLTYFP
Sequence of Hdm2/HdmX complex (O15151 whole entry): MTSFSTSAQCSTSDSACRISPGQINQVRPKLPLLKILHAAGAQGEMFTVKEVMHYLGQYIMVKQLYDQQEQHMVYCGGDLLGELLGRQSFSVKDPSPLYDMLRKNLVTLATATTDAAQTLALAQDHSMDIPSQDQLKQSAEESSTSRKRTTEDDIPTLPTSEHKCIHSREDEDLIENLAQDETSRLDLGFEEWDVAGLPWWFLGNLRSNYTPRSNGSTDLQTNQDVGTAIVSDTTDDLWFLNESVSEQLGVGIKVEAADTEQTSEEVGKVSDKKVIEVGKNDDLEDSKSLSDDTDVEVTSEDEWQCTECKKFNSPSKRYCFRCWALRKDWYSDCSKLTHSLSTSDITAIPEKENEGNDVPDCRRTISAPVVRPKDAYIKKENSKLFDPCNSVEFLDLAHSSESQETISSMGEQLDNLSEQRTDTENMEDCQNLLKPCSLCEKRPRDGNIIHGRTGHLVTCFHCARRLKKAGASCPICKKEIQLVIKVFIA

## CC[C@@]1(O)C(=O)OCc2c1cc1n(c2=O)Cc2cc3cc4c(cc3nc2-1)OCO4 [FL118]
[1]
  antitumor activity on the same PDX on different mice: very similar antitumor activity to the same tumor on different SCID mice
[2]
  biochemical targets identified: Revealed Novel FL118 Biochemical Targets
Cancer cells
  sensitivity of cancer cells: sensitive to FL118 treatment
Survivin promoter
  concentration that can effectively inhibit survivin promoter activity: 1 to 10 nM
Survivin promoter; HCT116 cells with full-length survivin promoter-luciferase, 24 h, hypoxia
  hypoxia-induced survivin promoter activity: abrogated by FL118 treatment
p53
  p53 protein expression: strong and rapid induction of p53 expression
PARP cleavage
  PARP cleavage: more effective to induce PARP cleavage in p53 null HCT116 colon cancer cells than in p53 wild type HCT116 cells
[3]
  sensitivity of HUVEC cells: insensitive to FL118 treatment
[4]
  effect of forced expression of ABCC4 or ABCG2 on resistance: fails to increase FL118 resistance
Hdm2/HdmX complex
  Hdm2-mediated HdmX ubiquitination in vitro: stimulates Hdm2-mediated HdmX ubiquitination in a concentration-dependent manner
  Mdm2-MdmX mediated p53 polyubiquitination in vitro: moderately inhibits
HCT-8 cells
  clonogenic growth: inhibits clonogenic growth independent of p53 status
HCT-8 colon cancer cells
  more sensitive to colon cancer cells than topotecan: at least 25 time
[5]
  efficacy on different PDX tumors of the same type: much different efficacy to different tumors of the same type
HCT116-G7 cells
  IC50: 1.19 nM
HCT116-G7 cells; [10]
  RP: 16.22
[6]; DU-145
  IC50: 4.56 nM
[6]; parental Du145 cell line
  more effective than CPT, SN-38 and topotecan to inhibit cancer cell growth: 10-40 fold
HCT116-A2 cells
  IC50: 0.163 nM
HCT116-A2 cells; [10]
  RP: 666.5
HCT116-C8 cells
  IC50: 0.0937 nM
HCT116-C8 cells; [10]
  RP: 4041
[7]
  expression of Bcl-2 family antiapoptotic genes: slightly decreases Mcl-1 and Bcl-XL, and shows no effect on Bcl-2, Bcl2A1, Bcl-w, Bcl-B, Bcl2L12, Bcl2L13, Bcl-G and Bcl2L15
  expression of IAP family genes: decreases (2 fold cutoff) NAIP, cIAP2, XIAP and Bruce, and shows no effects on cIAP1, Livin and hILP2
  expression of proapoptotic proteins: increases proapoptotic proteins Bax, Bad, Bim, Hrk, and Bmf without affecting the expression of Bid, Bik, Bak and Bok
[8]
  effect on tumors with acquired irinotecan and topotecan resistance: effectively regressed
[9]
  lactone versus carboxylate form in solution: fully in lactone form
